{
  "source": "paper PMC12884720",
  "about": "“Gabpα‐Pparγ Complex Determines Glycolytic Capacity and Lactic Acid Homeostasis in Brown Fat” (Advanced Science, 2025)",
  "key": {"wild‐type mice [1]": {"test_system": "wild‐type mice", "assay": "Lactate levels in BAT and serum", "assay_type": "in vivo, wild‐type C57BL/6J mice", "settings": "GPCBi 5.5 mg kg^−1 in BAT, 23 °C for 7 days then 10 °C for 2 days", "procedure": "The mouse experiments were approved by the Institutional Animal Care and Use Committee of the Institute of Model Animals of Tongji Hospital, Huazhong University of Science and Technology, and were performed in compliance with all relevant ethical regulations (approval number: TJH‐202110044). Unless otherwise noted, the mice were housed in a pathogen‐free and climate‐controlled environment (22–25 °C, 40‐60% humidity) and were given free access to food and water on a 12 h light/dark cycle. Wild‐type C57BL/6J mice were obtained from Beijing Huafukang Bioscience Co., Ltd. (Beijing, China). Gabpa ^flox/flox , Adipoq^Cre , and Ucp1^Cre mice were purchased from Cyagen Biosciences, Inc. (Guangzhou, China). For GPCBi treatment, wild‐type mice were orthotopically injected GPCBi (FITC‐[…]; 5.5 mg kg^−1) or scramble peptide (FITC‐[…]; 5.5 mg kg^−1) into the BAT at room temperature for one week. […] For cold exposure, the mice were caged individually and exposed to a temperature of 10 or 4 °C. The mice were euthanized by CO2 inhalation. […] Body weight was measured every week, and tissue weights were measured at the time of euthanasia. […]"}, "Gabpα–Pparγ interaction": {"test_system": "Gabpα–Pparγ interaction", "assay": "Co-IP of His-Gabpα and Myc-Pparγ with peptide GPCBi", "assay_type": "binding", "settings": "HEK293T cells cotransfected with His‐Gabpα and Myc‐Pparγ, GPCBi 30 µM, 48 h, anti‐His IP (Figure S4c)"}, "Eno1 promoter": {"test_system": "Eno1 promoter", "assay": "Luciferase reporter assay, Eno1-Luc activated by Gabpα and Pparγ/Rxrα", "assay_type": "cell-based, human", "settings": "HEK293T cells, GPCBi 3 µM, n = 3 (Figure 4g)", "procedure": "HEK293T cells were transfected with 100 ng of Pparγ and 100 ng of Rxrα or empty vector together with 100 ng of Gabpα plasmid or the C‐terminal truncation mutants and 200 ng of Eno1 luciferase reporter plasmid in 24‐well plates via Lipofectamine reagent (Yeasen, Shanghai, China, Cat# 40802ES03). For the experiments with the peptides GPCBi or T0070907, the additional peptides GPCBi (3 µM) or T0070907 (10 µM) were added to the HEK293T cells one day after the plasmid complex was transfected. After 48 h of transfection, luciferase activity was measured via the Dual‐Luciferase Reporter Assay System (Vazyme Biotech., Nanjing, China; Cat# DL101‐01). Firefly luciferase reporter gene measurements were normalized to Renilla luciferase activity."}, "wild‐type mice [2]": {"test_system": "wild‐type mice", "assay": "BAT mass, body weight, tissue mass and morphology of mice after BAT injection of peptide", "assay_type": "in vivo, wild‐type C57BL/6J mice", "settings": "GPCBi 5.5 mg kg^−1 orthotopically into BAT", "procedure": "The mouse experiments were approved by the Institutional Animal Care and Use Committee of the Institute of Model Animals of Tongji Hospital, Huazhong University of Science and Technology, and were performed in compliance with all relevant ethical regulations (approval number: TJH‐202110044). Unless otherwise noted, the mice were housed in a pathogen‐free and climate‐controlled environment (22–25 °C, 40‐60% humidity) and were given free access to food and water on a 12 h light/dark cycle. Wild‐type C57BL/6J mice were obtained from Beijing Huafukang Bioscience Co., Ltd. (Beijing, China). Gabpa ^flox/flox , Adipoq^Cre , and Ucp1^Cre mice were purchased from Cyagen Biosciences, Inc. (Guangzhou, China). For GPCBi treatment, wild‐type mice were orthotopically injected GPCBi (FITC‐[…]; 5.5 mg kg^−1) or scramble peptide (FITC‐[…]; 5.5 mg kg^−1) into the BAT at room temperature for one week. […] For cold exposure, the mice were caged individually and exposed to a temperature of 10 or 4 °C. The mice were euthanized by CO2 inhalation. For studies with specific diets, five‐week‐old male Gabpα ^Adipo KI mice and their respective littermate control mice were fed a HFD (D12492, Research Diets; 60 kcal% fat, 20 kcal% carbohydrates, and 20 kcal% protein; Medicience Ltd., Jiangsu, China) at ambient temperature. The food was changed every week. Body weight was measured every week, and tissue weights were measured at the time of euthanasia."}, "wild‐type mice [3]": {"test_system": "wild‐type mice", "assay": "Fasting blood glucose", "assay_type": "in vivo, wild‐type C57BL/6J mice", "settings": "GPCBi 5.5 mg kg^−1 orthotopically into BAT; n = 5 (Figure S4h)", "procedure": "The mouse experiments were approved by the Institutional Animal Care and Use Committee of the Institute of Model Animals of Tongji Hospital, Huazhong University of Science and Technology, and were performed in compliance with all relevant ethical regulations (approval number: TJH‐202110044). Unless otherwise noted, the mice were housed in a pathogen‐free and climate‐controlled environment (22–25 °C, 40‐60% humidity) and were given free access to food and water on a 12 h light/dark cycle. Wild‐type C57BL/6J mice were obtained from Beijing Huafukang Bioscience Co., Ltd. (Beijing, China). Gabpa ^flox/flox , Adipoq^Cre , and Ucp1^Cre mice were purchased from Cyagen Biosciences, Inc. (Guangzhou, China). For GPCBi treatment, wild‐type mice were orthotopically injected GPCBi (FITC‐[…]; 5.5 mg kg^−1) or scramble peptide (FITC‐[…]; 5.5 mg kg^−1) into the BAT at room temperature for one week. […] For cold exposure, the mice were caged individually and exposed to a temperature of 10 or 4 °C. The mice were euthanized by CO2 inhalation. […] Body weight was measured every week, and tissue weights were measured at the time of euthanasia."}, "wild‐type mice [4]": {"test_system": "wild‐type mice", "assay": "Oxygen consumption and heat production (CLAMS)", "assay_type": "in vivo, wild‐type C57BL/6J mice", "settings": "GPCBi‐injected mice, room temperature, n = 4 (Figure 4n,o; Figure S4i,j)", "procedure": "The mouse experiments were approved by the Institutional Animal Care and Use Committee of the Institute of Model Animals of Tongji Hospital, Huazhong University of Science and Technology, and were performed in compliance with all relevant ethical regulations (approval number: TJH‐202110044). Unless otherwise noted, the mice were housed in a pathogen‐free and climate‐controlled environment (22–25 °C, 40‐60% humidity) and were given free access to food and water on a 12 h light/dark cycle. Wild‐type C57BL/6J mice were obtained from Beijing Huafukang Bioscience Co., Ltd. (Beijing, China). Gabpa ^flox/flox , Adipoq^Cre , and Ucp1^Cre mice were purchased from Cyagen Biosciences, Inc. (Guangzhou, China). For GPCBi treatment, wild‐type mice were orthotopically injected GPCBi (FITC‐[…]; 5.5 mg kg^−1) or scramble peptide (FITC‐[…]; 5.5 mg kg^−1) into the BAT at room temperature for one week. […] Body weight was measured every week, and tissue weights were measured at the time of euthanasia.\nThree‐month‐old mice (Gabpα ^Ucp1 KO, Gabpα ^Adipo KI, peptide GPCBi, and respective littermate control mice) were subjected to whole‐body energy expenditure measurements in metabolic chambers. Oxygen consumption and heat production were monitored via a Comprehensive Laboratory Animal Monitoring System (CLAMS, Columbus Instruments) at specific temperatures. […]"}, "BAT from wild‐type mice": {"test_system": "BAT from wild‐type mice", "assay": "Gene expression (mRNA, protein) in BAT of treated mice", "assay_type": "in vivo, wild‐type C57BL/6J mice", "procedure": "Reverse transcription of cDNA was completed via the use of 1 µg of RNA with HiScript II Q RT SuperMix for real‐time quantitative PCR (qPCR) (Vazyme Biotech, Nanjing, China, Cat# R222) according to the provided protocols. qPCR was performed with a real‐time PCR system on a QuantStudio1 (Applied Biosystems) using Taq Pro Universal SYBR qPCR Master Mix (Vazyme Biotech., Nanjing, China, Cat# Q712‐02). Relative transcript levels were calculated via the comparative C T method; 36b4 was used as the internal control for cells, whereas Hprt was used as the internal control for tissues. The primer sequences are listed in Table S1 (Supporting Information). The mRNAs from the BAT of control and Gabpα ^Ucp1 KO mice were extracted and subjected to commercial RNA‐seq (BGI Genomics Co., Ltd.) for further DEG and KEGG pathway enrichment analysis. In detail, RNA quality was examined with Fragment (Agilent). High‐quality RNA (RIN > 8.0) was used to library construction. RNA‐seq was performed at BGI Genomics (China) using the Illumina NovaSeq 6000 platform. Clean reads were aligned to the mouse reference genome (GRCm39) using Bowtie2, and transcript quantification was performed with RSEM. […] The RNA‐seq data generated in this study have been deposited in the National Center for Biotechnology Information Sequence Read Archive database under accession code PRJNA1358056.\nCells and tissues were lysed in RIPA lysis buffer (Beyotime, Shanghai, China, Cat# P0013B) containing a protease inhibitor cocktail (MedChem Express, NJ, USA, Cat# HY‐K0010) according to the manufacturer's protocol. Equal amounts of protein were separated on SDS‒PAGE gels and transferred to PVDF membranes (Millipore). The PVDF membranes were blocked in 5% skim milk for 1 h at room temperature and then incubated with primary antibody overnight at 4 °C. The membranes were washed three times with TBST and then incubated with HRP‐conjugated secondary antibodies for 1 h at room temperature. After washing three times, the Western blots were imaged via an enhanced chemiluminescence system."}},
  "note": "Residues, ends and D or L forms follow the SMILES beside them. *: point of attachment. FITC = O=C1OC2(c3ccc(O)cc3Oc3cc(O)ccc32)c2ccc(NC(=S)*)cc21",
  "data": [
    {"molecule": "CC[C@H](C)[C@H](NC(=O)[C@H](CCCNC(=N)N)NC(=O)[C@H](CS)NC(=O)[C@H](CC(N)=O)NC(=O)[C@H](CC(C)C)NC(=O)[C@H](CC(=O)O)NC(=O)[C@H](CS)NC(=O)[C@H](CCCNC(=N)N)NC(=O)[C@H](CC(=O)O)NC(=O)[C@H](Cc1ccc(O)cc1)NC(=O)[C@@H](NC(=O)[C@H](CC(C)C)NC(=O)[C@H](CCCCN)NC(=O)[C@H](CC(C)C)NC(=O)[C@H](CCCNC(=N)N)NC(=O)[C@@H](NC(=O)[C@@H](NC(=O)[C@H](CCCNC(=N)N)NC(=O)[C@H](CCCNC(=N)N)NC(=O)[C@H](CCCNC(=N)N)NC(=O)[C@H](CCCNC(=N)N)NC(=O)[C@H](CCCNC(=N)N)NC(=O)[C@H](CCC(N)=O)NC(=O)[C@H](CCCNC(=N)N)NC(=O)[C@H](CCCNC(=N)N)NC(=O)[C@H](CCCCN)NC(=O)[C@H](CCCCN)NC(=O)[C@H](CCCNC(=N)N)NC(=O)CNC(=O)[C@H](Cc1ccc(O)cc1)NC(=S)Nc1ccc2c(c1)C(=O)OC21c2ccc(O)cc2Oc2cc(O)ccc21)[C@@H](C)O)[C@@H](C)CC)[C@@H](C)CC)C(=O)N[C@@H](Cc1c[nH]cn1)C(=O)N[C@@H](CCCCN)C(=O)N[C@@H](CCCCN)C(=O)N[C@@H](CO)C(=O)N[C@@H](CCCNC(=N)N)C(=O)N[C@@H](CC(N)=O)C(=O)N[C@@H](CCCCN)C(=O)O", "note": "[GPCBi] ({FITC}-YGRKKRRQRRRRRTIRLKLIYDRCDLNCRIHKKSRNK-OH; N-terminus and C-terminus assumed)", "values": [
      {"measurement": "production of lactate in brown fat", "setting": "wild‐type mice [1]; n = 3 (Figure 5c)", "value": "substantially suppressed"},
      {"measurement": "lactate in circulation (serum)", "setting": "wild‐type mice [1]; n = 3 (Figure 5d)", "value": "substantially suppressed"},
      {"measurement": "binding capacity between Gabpα and Pparγ", "setting": "Gabpα–Pparγ interaction", "value": "decreased"},
      {"measurement": "Gabpα‐Pparγ complex‐mediated activation of the Eno1 promoter", "setting": "Eno1 promoter", "value": "suppressed"},
      {"measurement": "BAT morphology", "setting": "wild‐type mice [2]; one week (Figure S4f)", "value": "morphological changes"},
      {"measurement": "body weight or the morphology or tissue mass of IngWAT, EpiWAT, or the liver", "setting": "wild‐type mice [2]; one week, n = 4 (Figure S4e-g)", "value": "no significant changes"},
      {"measurement": "BAT mass", "setting": "wild‐type mice [2]; room temperature, one week, versus scramble peptide, n = 4 (Figure S4g)", "value": "reduced BAT mass"},
      {"measurement": "fasting blood glucose levels", "setting": "wild‐type mice [3]", "value": "markedly increased"},
      {"measurement": "oxygen consumption and heat production", "setting": "wild‐type mice [4]", "value": "significant decreases"},
      {"measurement": "Ldh and Ucp1 expression in BAT", "setting": "BAT from wild‐type mice; GPCBi 5.5 mg kg^−1 in BAT, 23 °C for 7 days then 10 °C for 2 days, mRNA n = 4 (Figure 5e,f)", "value": "effectively downregulated"},
      {"measurement": "gene expressions of Eno1, Pkm2, and Ucp1 in BAT", "setting": "BAT from wild‐type mice; GPCBi 5.5 mg kg^−1 orthotopically into BAT, 7 days, control n = 3, GPCBi n = 4 (Figure 4l,m)", "value": "decreased"},
      {"measurement": "regulatory gene expression of the futile lipid cycle, BAT", "setting": "BAT from wild‐type mice; GPCBi in BAT, 23 °C for 7 days to 10 °C for 2 days, control n = 4, GPCBi n = 3 (Figure S5a)", "value": "substantially impaired"}
    ]}
  ]
}
